Measurements published in patent US20190374509A1, “Methods of Using Metamizole for Treatment of Pyrexia in Equines” (Kindred Biosciences, Inc., priority 2018, published 2019).
Values joined by “and” are separate entries in the source; they are usually repeats but may differ in a detail not shown here. Identical values can stand only once.

Test system: horses
Assay: Margin of safety study, IV three times daily for 9 days: coagulation panel (prothrombin time, APTT, fibrinogen)
Type: in vivo
Details: for Prothrombin Time LS Means: averaged over time and sex
Protocol: A study was conducted to evaluate the margin of safety of metamizole when administered intravenously to horses for 9 days at doses of 0 mg/kg (0×), 30 mg/kg (1×), 60 mg/kg (2×), and 90 mg/kg (3×) of body weight three times daily (TID), every 8 hours±30 min.
This was a prospective, blinded, randomized, placebo-controlled, parallel-group laboratory study in research horses. Thirty-two horses were enrolled in the study (Table 1).
Treatment phase involved administration of the investigational drug or placebo. The investigational drug was a sterile injectable formulation of dipyrone (Zimeta™, Corden Pharma, Caponago, Italy) (500 mg/mL) in 100 mL glass bottles. The placebo was sterile injectable saline (Nova-Tech Inc, Grand Island, NE) (0.9% sodium chloride) in 500 mL plastic bottles labeled for veterinary use. Dipyrone treatment groups were 30 mg/kg (1×), 60 mg/kg (2×), and 90 mg/kg (3×). Placebo treatment group was saline administered at a volume to match the 3× dipyrone group (0×). The dose was calculated based on body weight and administered three times daily for nine consecutive days. Due to the large volume of injection at the higher dose groups, treatment was administered via indwelling intravenous (IV) catheters. Intravenous catheters were placed using standard techniques. Horses were sedated with xylazine (AnaSed® LA, VetOne, MWI, Boise, Id.) and the skin was desensitized with subcutaneous injection of lidocaine (VetOne, MWI, Boise, Id.). Intravenous catheters were replaced at the discretion of the study director and were maintained with heparinized saline flush prior to and following dose administration.
Randomization occurred on Study Day −1. […] .
For continuous endpoints with repeated post-treatment measurements (serum chemistry, coagulation, hematology, urinalysis, body weight, body temperature, heart rate and respiratory rate), repeated measurement analysis of covariance (SAS MIXED procedure RMANCOVA) was used to evaluate a model including treatment, time, sex, treatment by sex interaction, treatment by time interaction, and treatment by time by sex three-way interaction as fixed effects. In addition, baseline values were included as a covariate and remained in the model regardless of its significance. Baseline values were defined as the values prior to and nearest to the first dosing. The covariance structures for repeated measures analysis of covariance (RMANCOVA) were selected from compound symmetry (CS) and compound symmetry heterogeneous variances (CSH), since only two post baseline measurements were collected in this study. The Kenward-Roger approximation was used to calculate denominator degrees of freedom for statistical tests. The minimum Akaike Information Criterion was used to select the covariance structure.
In Table 6 below the percent of samples in each treatment group that were above the upper reference range limit of 12 seconds is listed for Days 4 and 8.

[1] = 1X, 30 mg/kg IV every 8 hours, Day 4
[2] = 1X, 30 mg/kg IV every 8 hours, Day 8
[3] = 2X, 60 mg/kg IV every 8 hours, Day 4
[4] = 2X, 60 mg/kg IV every 8 hours, Day 8
[5] = 3X, 90 mg/kg IV every 8 hours, Day 4
[6] = 3X, 90 mg/kg IV every 8 hours, Day 8
[7] = 3X, 90 mg/kg IV every 8 hours, Day 8, only 7 samples
[8] = 30, 60, 90 mg/kg IV every 8 hours for 9 days vs placebo

Structure (SMILES): Cc1c(N(C)CS(=O)(=O)O)c(=O)n(-c2ccccc2)n1C [dipyrone, [(2,3-dihydro-1,5-dimethyl-3-oxo-2-phenyl-1H-pyrazol-4-yl)methylamino] methanesulfonic acid]
- Percent of samples with PT >12 sec [1]: 100%
- Percent of samples with PT >14 sec [1]: 25%
- Prothrombin Time Day 4 Range [1]: 12.6 to 14.6 s
- Range of PT values >14 sec [1]: 14.1 to 14.6 s
- Percent of samples with PT >12 sec [2]: 100%
- Percent of samples with PT >14 sec [2]: 13%
- Prothrombin Time Day 8 Range [2]: 12.3 to 15.2 s
- Range of PT values >14 sec [2]: (15.2) sec
- Prothrombin Time LS Means (1X, 30 mg/kg IV every 8 hours): 13.374 s and 13.374 ± 0.4062 s
- Percent of samples with PT >12 sec [3]: 100%
- Percent of samples with PT >14 sec [3]: 13%
- Prothrombin Time Day 4 Range [3]: 12.7 to 15.8 s
- Range of PT values >14 sec [3]: 15.8 s
- Percent of samples with PT >12 sec [4]: 100%
- Percent of samples with PT >14 sec [4]: 50%
- Prolongation of PT observed, number of horses [4]: 1
- Prothrombin Time Day 8 Range [4]: 12.8 to 21.6 s
- Range of PT values >14 sec [4]: (14.7-21.6) sec
- Prothrombin Time LS Means (2X, 60 mg/kg IV every 8 hours): 14.524 s and 14.524 ± 0.4064 s
- Percent of samples with PT >12 sec [5]: 100%
- Percent of samples with PT >14 sec [5]: 75%
- Prothrombin Time Day 4 Range [5]: 13.4 to 15.9 s
- Range of PT values >14 sec [5]: 14.6 to 15.9 s
- Prolongation of PT observed, number of horses [6]: 1
- Prothrombin Time Day 8 Range [6]: 12.7 to 21.9 s
- Range of PT values >14 sec [6]: (14.3-21.9) sec
- Percent of samples with PT >12 sec [7]: 100%^4
- Percent of samples with PT >14 sec [7]: 71%^4
- Prothrombin Time LS Means (3X, 90 mg/kg IV every 8 hours): 14.946 s and 14.946 ± 0.4396 s
- Activated partial thromboplastin time (APTT) or fibrinogen [8]: no statistically significant differences
- Effect on prothrombin time (PT) [8]: statistically significant main treatment effect of prolongation of prothrombin time (PT)
